Measurements reported in patent US8557864B2, “Agent having neurotrophic factor-like activity” (Nagoya Industrial Science Research Institute, priority 2007, dated 2013).

system: MAP kinases; experiment: Measurement of activation of MAP kinases in cultured nerve cells (western immunoblotting); type: cell-based; settings: fetal rat cerebral cortex nerve cells, compound 500 μg/ml, 30 minutes, relative to control
Experimental: Activation of MAP kinases was measured on respective compounds in Table 1 including the compound obtained in Production Example with western immunoblotting as follows. Nerve cells were dispersed from a cerebral cortex of a 17-day-old fetal rat and the nerve cells were cultured in a Dulbecco's modified eagle medium (DMEM) containing 5%; fetal bovine serum for 1 day. A culture solution was exchanged to a serum-free medium (B27 supplement added Neurobasal, Invitrogen Corporation), and the nerve cells were cultured in a culture petri dish coated with polyornithine at a density of 20,000 to 40,000 cells/cm^2. Three days later, each of the compounds in Table 1 was added thereto, and culture for 30 minutes was continued. Then, cells were recovered on ice with a solution of a Tris-HCL buffer as a base containing a phosphatase inhibitor. The protein concentration of the obtained cell extraction was determined using a BCA Protein Assay Kit (TAKARABIO INC.), a constant amount (3 μg for MAP kinase measurement, 5 μg for phosphorylated MAP kinase measurement) of the protein was electrophoresed with a polyacrylic amide gel. The protein was transcribed to a PVDF membrane from the gel after electrophoresis, and western immunoblotting was carried out using the primary antibodies: an anti-MAP kinase antibody (Cell Signaling Technology, Inc.) and an antiphosphorylated MAP kinase antibody (Cell Signaling Technology, Inc.), respectively. Subsequently, an enzyme activity was subjected to color development by being reacted with the secondary antibody: an alkaline phosphatase labeled anti-rabbit IgG antibody (Promega KK) to measure MAP kinases and phosphorylated MAP kinases. In addition, each compound was dissolved in 0.7% DMSO and adjusted to have a concentration of 500 μg/ml. A control was added with a phosphoric acid buffer containing 0.1% DMSO in the same amount as the compound.
The above obtained concentration measurement of the electrophoresis gel band was digitalized by calculating an intensity with Image J (BioArts International, Inc.). The numerical value of MAP kinases of each compound was divided by the numerical value of the control's MAP kinases, and the numerical value of phosphorylated MAP kinases of each compound was divided by the numerical value of the control's phosphorylated MAP kinases to find a ratio of the MAP kinases of each compound to the control and a ratio of the phosphorylated MAP kinases of the each compound to the control. Then, the obtained ratio of the phosphorylated MAP kinases to the control was divided by the obtained ratio of the MAP kinases to the control to find a ratio of the phosphorylated MAP kinases to the MAP kinases and graphs were formed and shown in FIGS. 1 to 3. Compound 1, compound 6, compound 11, compound 16, compound 21 and compound 36 in Table 1 were used from products made by Wako Pure Chemical Industries, Ltd.

Compound	ratio of phosphorylated MAP kinases to MAP kinases
CCCCCCCCCC(=O)OC [Compound 2, decanoic acid methyl ester]	high activities
CCCCCCCCCC(=O)OCC [Compound 3, decanoic acid ethyl ester]	high activities
CCCCCCC/C=C/C(=O)O [Compound 6, trans-2-decenoic acid]	high activities
CCCCCCC/C=C/C(=O)OC [Compound 7, trans-2-decenoic acid methyl ester]	twice or more
C=CCCCCCCCC(=O)OC [Compound 12, trans-9-decenoic acid methyl ester]	high activities
C=CCCCCCCCC(=O)OCC [Compound 13, trans-9-decenoic acid ethyl ester]	high activities
C=CCCCCCCCCC(=O)OC [Compound 22, trans-10-undecenoic acid methyl ester]	high activities
C=CCCCCCCCCC(=O)OCC [Compound 23, trans-10-undecenoic acid ethyl ester]	high activities
CCCCCCC/C=C/COC(=O)/C=C/CCCCCCC [Compound 47, trans-2-decenoic acid-trans-2-decenyl ester]	twice or more
CCCCCCC/C=C/C(=O)OC1CCCCC1 [Compound 48, trans-2-decenoic acid cyclohexyl ester]	twice or more
CCCCCCC/C=C/C(=O)OCCCCCCCC [Compound 53, trans-2-decenoic acid octyl ester]	twice or more
CCCCCCC/C=C/C(=O)OC(C)C [Compound 54, trans-2-decenoic acid isopropyl ester]	twice or more
CCOC(=O)/C=C(\C)CCC=C(C)C [Compound 77, geranic acid ethyl ester]	high activities
CCOC(=O)CC(C)CCCC(C)C (stereo not drawn) [Compound 78, 3,7-dimethyloctanoic acid ethyl ester]	high activities

same assay, conditions: fetal rat cerebral cortex nerve cells, compound 500 μg/ml, 30 minutes, relative to control; listed as trans-2-decenic acid methyl ester

Compound	ratio of phosphorylated MAP kinases to MAP kinases
CCCCCCC/C=C/C(=O)OC [Compound 7, trans-2-decenoic acid methyl ester]	6 times

system: mice under chronic mild stress; experiment: Tail suspension test comparing compound 8 and fluvoxamine after chronic mild stress; type: in vivo; settings: Exp. 2 (1 week after stress); compound 8 500 μg/kg, fluvoxamine 1000 μg/kg intraperitoneally once per day
Experimental: 7-week-old male ddY strain mice fed in one cage for 4 mice were first subjected to forced swimming for 15 minutes in the same manner as stress in Example 2 (behavior test of mice under stress) (1) described in the paragraph [0063] in the specification. Then, stress for 1 week using 3 kinds of cages was regarded as 1 cycle, and the stress was applied for 3 cycles (3 weeks) and chronic mild stress (CMS) was applied. The compound 8 and fluvoxamine were administered to mice immediately after stress in Exp. 1, 1 week after stress in Exp. 2, and 2 weeks after stress in Exp. 3, respectively, and tail suspension tests were carried out on the respective test groups. In each test group, the compound 8 was adjusted in concentration so as to have each of the doses of […] and fluvoxamine was adjusted in concentration so as to have a dose of 1000 μg/kg, by dissolving in 0.1% DMSO, and each dose of the compound 8 and fluvoxamine were intraperitoneally injected to mice once per day from the time immediately after stress. Further, to 7-week-old male ddY strain mice fed in one cage for 4 mice without stress, the compound 8 and fluvoxamine were administered to carry out the tail suspension tests in the same manner as the stressed mice. FIG. 31 show the result. A significance test was performed in a Student's t-test (*). […] “DAEE” denotes the compound 8 and “Flu” denotes fluvoxamine.

Compound	effect on depressive symptom (immobility time)
COCCCC/C(=N\OCCN)c1ccc(C(F)(F)F)cc1 [fluvoxamine]	an effect could not be recognized

same assay, conditions: Exp. 3 (2 weeks after stress); fluvoxamine 1000 μg/kg intraperitoneally once per day

Compound	effect on depressive symptom (immobility time)
COCCCC/C(=N\OCCN)c1ccc(C(F)(F)F)cc1 [fluvoxamine]	recognized only in Exp. 3

system: mice; experiment: Voluntary alternation behavior test (Y-maze test) of mice administered with trimethyltin; type: in vivo; settings: TMT 2 mg/kg weight intraperitoneally
Experimental: The voluntary alternation behavior test (Y-maze test) is one kind of a behavior test using a Y-shaped maze constituted with three arms. First, a mouse is placed on the tip of one arm out of the three arms, letting the mouse freely explore in the maze over 8 minutes, and arms where the mouse transferred are recorded in order. Then, the number of times of transferring to each arm (total arm selection number (total arm entries)) and the number of sequentially selecting three different arms (number of alternation behavior (number of spontaneous behavior)) are counted.
Trimethyltin (hereinafter referred to as “TMT”) is an organic metal compound having neurotoxicity, and acute nerve cell death is cased particularly in granular nerve cells of the hippocampus dentate gyrus, which thus affects memory and learning abilities of a mouse.
The voluntary alternation tests (Y-maze tests) were performed on 1) test groups to which the compound 8 was singly administered and 2) test groups to which TMT and the compound 8 were administered. In the test groups to which the compound 8 was singly administered, the compound 8 was dissolved in 0.1% DMSO to adjust a concentration so as to have each of the doses of 100 and 500 μg/kg and intraperitoneally injected to 6 mice in every administration example each in a dose of 0.25 mL. In 0 μg/kg weight administration examples of controls, 0.25 mL of a phosphoric acid buffer containing 0.1% DMSO was intraperitoneally injected in each time. The voluntary alternation tests (Y-maze tests) were performed on each of the administration groups after the elapse of 2 hours from intraperitoneal administration. In the test group in which TMT and the compound 8 were administered, TMT (2 mg/kg weight) was intraperitoneally administered to a mouse, and the compound 8 was intraperitoneally administered in the same manner as the test groups in which the compound 8 was singly administered after 2 days have passed, and the voluntary alternation test (Y-maze test) was performed after the elapse of 2 hours. FIG. 32 show the results. Significance tests were performed in a Turkey's test (*, ##) and a Student's t-test (++). “DAEE” denotes the compound 8.

Compound	voluntary alternation behavior after TMT treatment
[CH3][Sn+]([CH3])[CH3] [TMT, Trimethyltin, reference compound]	significantly decreased
